Reference: patent US6596741B2, “Biaryl ether derivatives useful as monoamine reuptake inhibitors” (Pfizer Inc, priority 1999, dated 2003)
Where a name gives a salt, the structure may show the parent alone.

SMILES | melting point
CNCc1ccc(-c2ccccc2)cc1Oc1ccc(Cl)c(Cl)c1 (as salt: HCl) [Example 2, [3-(3,4-Dichlorophenoxy)-biphenyl-4-ylmethyl]-methylamine] | 186 to 194 °C
CNCc1ccc(-c2cccs2)cc1Oc1ccc(Cl)c(Cl)c1 (as salt: HCl) [Example 11, [2-(3,4-Dichlorophenoxy)-4-thiophen-2-ylbenzyl]-methylamine] | 180 to 183 °C
CNC(C)c1cc(N2CCCC2=O)ccc1Oc1ccc(Cl)c(Cl)c1.Cl (stereo not shown) | 195 to 200 °C
CNCc1ccc(-c2ccsc2)cc1Oc1ccc(Cl)c(Cl)c1 (as salt: HCl) (hydrate or solvate) [Example 9, [2-(3,4-Dichlorophenoxy)-4-thiophen-3-ylbenzyl]-methylamine] | 181 to 184 °C
CNCc1ccc(-c2ccco2)cc1Oc1ccc(Cl)c(Cl)c1 (hydrate or solvate) [Example 7, [2-(3,4-Dichlorophenoxy)-4-furan-2-ylbenzyl]-methylamine] | 129 to 134 °C

Now from value to molecule:

melting point | SMILES
207 to 209 °C | CNCc1cc(-c2cccs2)ccc1Oc1ccc(Cl)c(Cl)c1 (as salt: HCl) [Example 10, [2-(3,4-Dichlorophenoxy)-5-thiophen-2-ylbenzyl]-methylamine]
208 to 210 °C | CNCc1cc(-c2ccc(C)cc2)ccc1Oc1ccc(Cl)c(Cl)c1 (as salt: HCl) (hydrate or solvate) [Example 3, [4-(3,4-Dichlorophenoxy)-4′-methyl-biphenyl-3-ylmethyl]-methylamine]
225 to 233 °C | CNCc1cc(-n2ccc(N)n2)ccc1Oc1ccc(Cl)c(Cl)c1.Cl.Cl
179 to 181 °C | CNCc1cc(-c2ccncc2)ccc1Oc1ccc(Cl)c(Cl)c1 (as salt: HCl) (hydrate or solvate) [Example 14, [2-(3,4-Dichlorophenoxy)-5-pyridin-4-ylbenzyl]-methylamine]
169 to 172 °C | CNCc1cc(-c2ccsc2)ccc1Oc1ccc(Cl)c(Cl)c1 (as salt: HCl) [Example 8, [2-(3,4-Dichlorophenoxy)-5-thiophen-3-ylbenzyl]-methylamine]
168 to 171 °C | CNCc1cc(-c2cccnc2)ccc1Oc1ccc(Cl)c(Cl)c1 (as salt: HCl) [Example 13, [2-(3,4-Dichlorophenoxy)-5-pyridin-3-ylbenzyl]-methylamine]
188 to 191 °C | CNCc1cc(-c2ccco2)ccc1Oc1ccc(Cl)c(Cl)c1 (as salt: HCl) (hydrate or solvate) [Example 6, [2-(3,4-Dichlorophenoxy)-5-furan-2-ylbenzyl]-methylamine]
166 to 170 °C | CNCc1cc(N2CCCC2=O)ccc1Oc1ccc(Cl)c(Cl)c1 (as salt: HCl) [Example 19, 1-[4-(3,4-Dichlorophenoxy)-3-(methylaminomethyl)phenyl]-pyrrolidin-2-one]
